Measured values as given in patent US8212036B2, “Maleate salts of 6-(5-chloro-2-pyridyl)-5-[(4-methyl-1-piperazinyl)carbonyloxy]-7-oxo-6,7-dihydro-5H-pyrrolo[3,4-b]pyrazine” (Sunovion Pharmaceuticals Inc., priority 2007, dated 2012).

Assays:
Assay type in all cases: physicochemical
[1] = Intrinsic dissolution, USP 28 method <1087>; conditions: isotonic 50 mM acetate (pH 4.5) buffer at 37° C., 50 rpm
Method: The intrinsic dissolution (Table 3) was determined using USP 28 method <1087> (United States Pharmacopeia, The National Formulary, USP 28, 28th edition, Rockville, […]., 2005). Preparation of each test sample was performed as per USP 28 method <1087> by weighing and transferring the material to the die cavity and compressing for 1 minute at the minimum compression pressure necessary to form a nondisintegrating compacted pellet. The dissolution media used was isotonic 50 mM acetate buffer (pH 4.5) at 37° C. and speed was set at 50 rpm. Each run was halted at 5 min, irrespective of the percent dissolved. Each salt was run in duplicate.

[2] = Aqueous solubility (24 hour equilibrated suspension in water, HPLC); conditions: for pH measured at saturation: saturated suspension in water
Method: The aliquot was diluted and analyzed by HPLC (Waters). The data was compared to a standard curve generated from a set of solutions of known concentrations. The standard curve and the samples were analyzed using a HPLC using the following conditions: […]

[3] = Tablet dissolution over time at various pH; conditions: for Dependence of dissolution on pH: oral dosage form, media pH 1 to 6.8 and deionized water
Method: Dissolution over time of eszopiclone free base at various pHs (FIG. 1) was compared to that of eszopiclone maleate salt (FIG. 2) in dissolution media at various pH values using Hanson Research SR8-Plus Dissolution Apparatus and C-Technologies Fiber Optic UV Probes at 305 nm (excipients subtracted at 410 nm). The dissolution media used were (a) pH 1 (0.1N HCl) 50 ml of conc HCl mixed in 6 L of water; (b) pH 4.5 acetate buffer (20 mM) 5.88 g of sodium acetate trihydrate dissolved in 6 L of water, pH adjusted to 4.5 with acetic acid; (c) pH 5.5 phosphate buffer (20 mM) 16.3 g of potassium dihydrogen phosphate in 6 L of water. pH adjusted to 5.5 with NaOH; (d) pH 6.8 phosphate buffer (20 mM) 16.3 g of potassium dihydrogen phosphate in 6 L of water. pH adjusted 6.8 with NaOH. A standard dissolution protocol was used. The standard solution (0.006 mg/mL of eszopiclone free base) was prepared by weighing a known amount (˜20 mg) of the free base into a 100 mL volumetric flask. 10 mL of acetonitrile was added into the flask and sonicated until the solids dissolved completely. The solution was cooled to room temperature and made up to the 100 mL mark using media and mixed well. Dilute 3 mL to 100 mL using media. The tables were prepared by transferring 500 mL dissolution media into the 6 vessels. Blank readings were taken for all the probes using media. Standards were read for individual vessels. Probes were washed with media and then inserted back into each vessel. One tablet was transferred into each vessel. The dissolution program was started immediately and readings were taken at 305 nm for 60 min (every 1 min for 20 min and then every 10 min).
FIG. 1 depicts dissolution profiles of the eszopiclone free base at pH 1 (0.1N HCl), pH 4.5 in buffer, pH 5.5 in buffer, pH 6.8 in buffer and in deionized water. […] FIG. 2 depicts dissolution profiles of the eszopiclone maleate salt at pH 1 (0.1N HCl), pH 4.5 in buffer, pH 5.5 in buffer, pH 6.8 in buffer and in deionized water. It can be seen that the dissolution is greater than 50% within five minutes and greater than 80% at one hour at all pH.

[4] = all pH (pH 1, 4.5, 5.5, 6.8, deionized water)

SMILES	Intrinsic dissolution Average [1] [mgA/cm^2/min]	Intrinsic dissolution Run 1 [1] [mgA/cm^2/min]	Intrinsic dissolution Run 2 [1] [mgA/cm^2/min]	pH measured at saturation [2]	solubility thermodynamic at 24 h ([2]; water, 24 hour at ambient) [µg/mL]	Dissolution at one hour [3, 4]	Dissolution within five minutes [3, 4]	Dependence of dissolution on pH [3]	Solubility ([2]; water, 24 hour at ambient)	Part of tablet dissolved at one hour ([3]; deionized water)	Dissolution of tablet ([3]; pH 1 (0.1N HCl))	Part of tablet dissolved at one hour ([3]; pH 6.8 buffer)
CN1CCN(C(=O)O[C@H]2c3nccnc3C(=O)N2c2ccc(Cl)cn2)CC1.O=C(O)/C=C\C(=O)O [Maleate, (S)-Zopiclone Maleate]	1.3	1.4	1.2	4.4	9000	greater than 80%	greater than 50%	dissolve quickly and at substantially the same rate, regardless of the pH	–	–	–	–
CN1CCN(C(=O)O[C@H]2c3nccnc3C(=O)N2c2ccc(Cl)cn2)CC1 [Free base, [(9S)-8-(5-chloropyridin-2-yl)-7-oxo-2,5,8-triazabicyclo[4.3.0]nona-1,3,5-trien-9-yl]4-methyl piperazine-1-carboxylate]	0.5	0.6	0.5	7.6	–	–	–	decreases markedly as the pH rises	0.2^1 mgA/mL	less than one half	rapid and complete	less than one half
